{"source": "patent US9440910B2", "about": "“Reference markers for fesoterodine fumarate” (ALEMBIC PHARMACEUTICALS LIMITED, priority 2012, dated 2016)", "type_in_all_cases": "physicochemical", "key": {"[1]": {"experiment": "Stability Study of Fesoterodine Fumarate at 25° C.+/−2° C. 60%+/−5% RH", "method": "(§1) Present inventors carried out the stability study of Fesoterodine Fumarate at different conditions and summarized the table shown below which easily indicate how the impurity at 1.82 RRT is increasingly generated.\nStability Study of Fesoterodine Fumarate at 25° C.+/−2° C. 60%+/−5% RH\n(§2) The LC system, used for method development and forced degradation studies and method validation was Waters-Alliance (manufactured by Waters India Ltd) LC system with a photo diode detector. The out put signal was monitored and processed using Empower software system (designed by Waters India) on IBM computer (Digital Equipment Co). • The chromatographic column used was a Waters Aquity BEH C18 100 mm×2.1 mm column with 1.7 μm particles. The mobile phase consists buffer (1.4 g of Disodium hydrogen phosphate in 1000 mL of water pH-8.0 with ortho phosphoric acid), and solvent is acetonitrile. The flow rate of the mobile phase was kept at 0.3 ml/min. beginning with the gradient ratio of mobile phase buffer and solvent 50:50 (v/v), system was continued at the same ratio for 2 minutes. The ratio was changed linearly 30:70(v/v) within 7 minutes and again system was continued at the same ratio for 9 minutes. After 1.5 minutes the initial gradient of 50:50 is for 2.5 minutes to be conditioned far every analysis. The column temperature was maintained at 45° C. and the wavelength was monitored at a wavelength of 220 nm. The injection volume was 3 μL for related substances determination. Acetonitrile was used as diluent during the standard, and test samples preparation."}, "[2]": {"experiment": "Stability Study of Fesoterodine Fumarate at 40° C.+/−2° C. 75%+/−5% RH", "method": "as §1\nStability Study of Fesoterodine Fumarate at 40° C.+/−2° C. 75%+/−5% RH\nas §2"}, "[3]": {"experiment": "Stability Study of Fesoterodine Fumarate at 30° C.+/−2° C. 65%+/−5% RH", "method": "as §1\nStability Study of Fesoterodine Fumarate at 30° C.+/−2° C. 65%+/−5% RH\nas §2"}, "[4]": {"experiment": "Stability Study of Fesoterodine Fumarate at 2-8° C.", "method": "as §1\nStability Study of Fesoterodine Fumarate at 2-8° C.\nas §2"}, "[5]": {"experiment": "Analysis of the stability samples of fesoterodine fumarate", "details": "after 2-6 months stability at 25° C. and above temperature; not observed during initial analysis", "method": "During analysis of the stability samples of fesoterodine fumarate, after 2-6 months stability at 25° C. and above temperature, the unknown impurity (1.82 RRT) detected which was not observed during initial analysis.\nas §2, with “The injection volume was 3 μL for related substances determination. Acetonitrile was used as diluent during the standard, and test samples preparation.” left out"}}, "note": "Where a name gives a salt, the structure may show the parent alone."}
{"smiles": "CC(C)C(=O)Oc1ccc(CO)cc1[C@H](CCN(C(C)C)C(C)C)c1ccccc1", "note": "[Fesoterodine Fumarate, [2-[(1R)-3-(Di(propan-2-yl)amino)-1-phenylpropyl]-4-(hydroxymethyl)phenyl]2-methylpropanoate]", "values": [{"measurement": "0.29 RRT (Fumaric acid ester)", "setting": "[1]; 1 month", "value": 0.05, "unit": "%"}, {"measurement": "Dihydroxy impurity (active metabolite)", "setting": "[1]; 1 month", "value": 0.15, "unit": "%"}, {"measurement": "Purity of Fesoterodine fumarate", "setting": "[1]; 1 month", "value": 99.52, "unit": "%"}, {"measurement": "0.29 RRT (Fumaric acid ester)", "setting": "[1]; 2 month", "value": 0.07, "unit": "%"}, {"measurement": "Dihydroxy impurity (active metabolite)", "setting": "[1]; 2 month", "value": 0.27, "unit": "%"}, {"measurement": "Purity of Fesoterodine fumarate", "setting": "[1]; 2 month", "value": 99.38, "unit": "%"}, {"measurement": "0.29 RRT (Fumaric acid ester)", "setting": "[1]; 3 month", "value": 0.08, "unit": "%"}, {"measurement": "1.82 RRT", "setting": "[1]; 3 month", "value": 0.01, "unit": "%"}, {"measurement": "Dihydroxy impurity (active metabolite)", "setting": "[1]; 3 month", "value": 0.40, "unit": "%"}, {"measurement": "Purity of Fesoterodine fumarate", "setting": "[1]; 3 month", "value": 99.25, "unit": "%"}, {"measurement": "0.29 RRT (Fumaric acid ester)", "setting": "[1]; 4 month", "value": 0.07, "unit": "%"}, {"measurement": "1.82 RRT", "setting": "[1]; 4 month", "value": 0.02, "unit": "%"}, {"measurement": "Dihydroxy impurity (active metabolite)", "setting": "[1]; 4 month", "value": 0.53, "unit": "%"}, {"measurement": "Purity of Fesoterodine fumarate", "setting": "[1]; 4 month", "value": 99.11, "unit": "%"}, {"measurement": "0.29 RRT (Fumaric acid ester)", "setting": "[1]; 6 month", "value": 0.12, "unit": "%"}, {"measurement": "1.82 RRT", "setting": "[1]; 6 month", "value": 0.11, "unit": "%"}, {"measurement": "Dihydroxy impurity (active metabolite)", "setting": "[1]; 6 month", "value": 1.02}, {"measurement": "Purity of Fesoterodine fumarate", "setting": "[1]; 6 month", "value": 98.42, "unit": "%"}, {"measurement": "0.29 RRT (Fumaric acid ester)", "setting": "[1]; Initial", "value": 0.03, "unit": "%"}, {"measurement": "Dihydroxy impurity (active metabolite)", "setting": "[1]; Initial", "value": 0.07, "unit": "%"}, {"measurement": "Purity of Fesoterodine fumarate", "setting": "[1]; Initial", "value": 99.69, "unit": "%"}, {"measurement": "0.29 RRT 0.29 RRT (Fumaric acid ester)", "setting": "[2]; 1 month", "value": 0.10, "unit": "%"}, {"measurement": "1.82 RRT", "setting": "[2]; 1 month", "value": 0.06, "unit": "%"}, {"measurement": "Dihydroxy impurity (active metabolite)", "setting": "[2]; 1 month", "value": 0.64, "unit": "%"}, {"measurement": "Purity of Fesoterodine fumarate", "setting": "[2]; 1 month", "value": 98.92, "unit": "%"}, {"measurement": "0.29 RRT 0.29 RRT (Fumaric acid ester)", "setting": "[2]; Initial", "value": 0.03, "unit": "%"}, {"measurement": "Dihydroxy impurity (active metabolite)", "setting": "[2]; Initial", "value": 0.07, "unit": "%"}, {"measurement": "Purity of Fesoterodine fumarate", "setting": "[2]; Initial", "value": 99.69, "unit": "%"}, {"measurement": "0.29 RRT (Fumaric acid ester)", "setting": "[3]; 1 month", "value": 0.06, "unit": "%"}, {"measurement": "Dihydroxy impurity (active metabolite)", "setting": "[3]; 1 month", "value": 0.23, "unit": "%"}, {"measurement": "Purity of Fesoterodine fumarate", "setting": "[3]; 1 month", "value": 99.43, "unit": "%"}, {"measurement": "0.29 RRT (Fumaric acid ester)", "setting": "[3]; 2 month", "value": 0.09, "unit": "%"}, {"measurement": "1.82 RRT", "setting": "[3]; 2 month", "value": 0.02, "unit": "%"}, {"measurement": "Dihydroxy impurity (active metabolite)", "setting": "[3]; 2 month", "value": 0.45, "unit": "%"}, {"measurement": "Purity of Fesoterodine fumarate", "setting": "[3]; 2 month", "value": 99.15, "unit": "%"}, {"measurement": "0.29 RRT (Fumaric acid ester)", "setting": "[3]; 3 month", "value": 0.10, "unit": "%"}, {"measurement": "1.82 RRT", "setting": "[3]; 3 month", "value": 0.07, "unit": "%"}, {"measurement": "Dihydroxy impurity (active metabolite)", "setting": "[3]; 3 month", "value": 0.71, "unit": "%"}, {"measurement": "Purity of Fesoterodine fumarate", "setting": "[3]; 3 month", "value": 98.84, "unit": "%"}, {"measurement": "0.29 RRT (Fumaric acid ester)", "setting": "[3]; 4 month", "value": 0.09, "unit": "%"}, {"measurement": "1.82 RRT", "setting": "[3]; 4 month", "value": 0.11, "unit": "%"}, {"measurement": "Dihydroxy impurity (active metabolite)", "setting": "[3]; 4 month", "value": 0.76, "unit": "%"}, {"measurement": "Purity of Fesoterodine fumarate", "setting": "[3]; 4 month", "value": 98.74, "unit": "%"}, {"measurement": "0.29 RRT (Fumaric acid ester)", "setting": "[3]; Initial", "value": 0.03, "unit": "%"}, {"measurement": "Dihydroxy impurity (active metabolite)", "setting": "[3]; Initial", "value": 0.07, "unit": "%"}, {"measurement": "Purity of Fesoterodine fumarate", "setting": "[3]; Initial", "value": 99.69, "unit": "%"}, {"measurement": "0.29 RRT (Fumaric acid ester)", "setting": "[4]; 3 month", "value": 0.04, "unit": "%"}, {"measurement": "Dihydroxy impurity (active metabolite)", "setting": "[4]; 3 month", "value": 0.11, "unit": "%"}, {"measurement": "Purity of Fesoterodine fumarate", "setting": "[4]; 3 month", "value": 99.61, "unit": "%"}, {"measurement": "0.29 RRT (Fumaric acid ester)", "setting": "[4]; 6 month", "value": 0.05, "unit": "%"}, {"measurement": "Dihydroxy impurity (active metabolite)", "setting": "[4]; 6 month", "value": 0.15, "unit": "%"}, {"measurement": "Purity of Fesoterodine fumarate", "setting": "[4]; 6 month", "value": 99.52, "unit": "%"}, {"measurement": "0.29 RRT (Fumaric acid ester)", "setting": "[4]; Initial", "value": 0.03, "unit": "%"}, {"measurement": "Dihydroxy impurity (active metabolite)", "setting": "[4]; Initial", "value": 0.07, "unit": "%"}, {"measurement": "Purity of Fesoterodine fumarate", "setting": "[4]; Initial", "value": 99.69, "unit": "%"}, {"measurement": "unknown impurity (1.82 RRT)", "setting": "[5]", "value": "detected"}]}
